Experimental data taken from PMC2669657 (Journal of the American Chemical Society, 2009).

Columns and labels:
[1] = biological target: T1, human orotate phosphoribosyltransferase (HsOPRT), OPRT domain of UMP synthase (Homo sapiens, UniProt P11172); experiment: steady-state kinetics; type: biochemical; conditions: read-out: OMP / Km
T1 sequence (P11172 2-245): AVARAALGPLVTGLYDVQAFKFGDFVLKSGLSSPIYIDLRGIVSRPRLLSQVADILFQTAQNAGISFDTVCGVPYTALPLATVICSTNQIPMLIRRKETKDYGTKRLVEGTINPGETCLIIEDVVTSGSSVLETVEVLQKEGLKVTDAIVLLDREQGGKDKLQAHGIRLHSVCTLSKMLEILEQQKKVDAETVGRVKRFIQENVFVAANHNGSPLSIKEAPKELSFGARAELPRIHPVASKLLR

[2] = biological target: Plasmodium falciparum orotate phosphoribosyltransferase (PfOPRT) (Plasmodium falciparum, UniProt Q8N0R1); type: biochemical
[3] = biological target: T1, human orotate phosphoribosyltransferase (HsOPRT), OPRT domain of UMP synthase; type: biochemical
[4] = substrate: O=C(O)CP(=O)(O)O; experiment: steady-state kinetics; type: biochemical, Plasmodium falciparum; conditions: Mg2+ ([…] MgCl2 in assay)
[5] = substrate: O=C(O)c1cc(=O)[nH]c(=O)n1[C@@H]1O[C@H](COP(=O)(O)O)[C@@H](O)[C@H]1O; experiment: purified protein; type: biochemical, Plasmodium falciparum; conditions: Mg2+ ([…] MgCl2 in assay); pH 8.0; 25.0 °C

Work on `O=C(O)c1cc(=O)[nH]c(=O)n1[C@@H]1O[C@H](COP(=O)(O)O)[C@@H](O)[C@H]1O` [orotidine 5′-monophosphate] yielded a Km [1] of 1.55 ± 0.61 µM.

`O=[N+]([O-])c1ccc(O[C@@H]2O[C@H](COP(=O)(O)O)[C@@H](O)[C@H]2O)cc1` [p-nitrophenyl β-D-ribose 5′-phosphate] gave a Ki [2] of 40 ± 21 nM.

In the case of `O=[N+]([O-])c1ccc(O[C@@H]2O[C@H](CO)[C@@H](O)[C@H]2O)cc1` [p-nitrophenyl β-D-ribose], the Ki [2] is reported as 188 ± 40 nM and the Ki [3] is reported as 121 ± 30 nM.

B1: Plasmodium falciparum orotate phosphoribosyltransferase (PfOPRT) (Plasmodium falciparum) (protein)
chain: MTTIKENEFLCDEEIYKSFVHLKDKICEERKKKELVNNNIDNVNFNDDDDNNYDDDGNSYSSYIKEMKKLLKVVLLKYKALKFGEFILKSKRKSNYFFSSGVLNNIVSSNIICFLLSELILKNKLSFDYLLGASYKGIPMVSLTSHFLFESKKYSNIFYLYDRKEKKEYGDKNVIVGNLDDDDKDILNLKKKTKNNQDEEKKNIIIIDDVFTCGTALTEILAKLKTYEHLKVVAFIVLLNRNEYEINENNQKIYFKDIFEKRVGIPLYSILSYKDDIQSMI
B1 gave a Km [4] of 1590 µM, a Km [5] of 3.73 ± 1.36 µM and a kcat [5] of 1.96 ± 0.29 s⁻¹. It also gave a kcat/Km [5] of 530000 M⁻¹ s⁻¹.
